Experimental data reported in patent US20250059208A1, “KRAS MODULATING COMPOUNDS” (priority 2023, published 2025).

Legend:
[1] = tested on: cellular pERK in MIA-PaCa-2 (KRAS-G12C) cell-line; assay: Cell based pERK assay, MIA-PaCa-2; settings: Homo sapiens; MIA-PaCa-2 (KRAS-G12C) cells, 2 hours compound incubation, HTRF Phospho-ERK1/2; read-out: MIAPaCa2 pERK EC50
Method: (§1) Compounds were tested in a 384-well assay format for their ability to inhibit cellular pERK in Kuramochi (WT KRAS), MIA-PaCa-2 (KRAS-G12C), ASPC-1 (KRAS G12D), and NCI-H441 (KRAS-G12V) cell-lines. Compounds were serially diluted (1:3) in DMSO. On day −1, 80 μL of cells were plated per well in the 384 well tissue-culture plates (Greiner: Cat #781080) to seed 5000 cells per wells of AsPC-1 or 7500 cells of MIA-PaCa-2, NCI-H441, and Kuramochi cell lines in RPMI (Corning: Cat #10-040-CM) with 10% fetal bovine serum (FBS) (HyClone: Cat #SH30071-03) and IX penicillin-streptomycin-glutamate (PSG) (Corning: Cat #30-009-C1) for […] and Kuramochi cell lines and DMEM (Corning: Cat #15-018-CM) with 10% FBS and 1×PSG for MIA-PaCa-2 cell line. The plates were then incubated overnight at 37° C. and 5% CO2. On day 0, 400 nL of compound/well was added into the cell plates and mixed 5 times by pipetting using a Beckmann Biomek FX. The cell plates were then incubated for 2 hours at 37° C. and 5% CO2. HTRF Advanced Phospho-ERK1/2 (THR202/TYR204) Detection Kits (PerkinElmer: Cat #64AERPEG) were used to prepare the lysis and detection solution according to manufacturer protocol. Following the 2 hour incubation, 70 μL of medium was aspirated from the plates and 10 μL of lysis and detection solution was added to the plates using a Biotek EL406 washer and dispenser. Plates were sealed and stored overnight at room temperature. HTRF ratio (665 nm/615 nm) was read by Envision multimode reader (PerkinElmer) the next day. The TR-FRET ratios were normalized to a positive (saturating concentration of known inhibitor) and negative (DMSO) control and plotted against the log of compound concentration.

[2] = target: GDP-loaded KRAS-G12D (Homo sapiens, UniProt P01116, G12D); assay: KRAS (GDP) biochemical TR-FRET probe displacement assay, G12D; format: binding; settings: 2 hours at room temperature
GDP-loaded KRAS-G12D, sequence (P01116 1-188 isoform P01116-2 G12D): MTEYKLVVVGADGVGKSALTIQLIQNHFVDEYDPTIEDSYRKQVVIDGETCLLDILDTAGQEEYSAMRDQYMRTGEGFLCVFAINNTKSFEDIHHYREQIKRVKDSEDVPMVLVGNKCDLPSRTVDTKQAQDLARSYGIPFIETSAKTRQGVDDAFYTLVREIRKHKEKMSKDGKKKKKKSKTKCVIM
Method: (§2) • Compounds were tested for binding to GDP-loaded wild-type KRAS (WT), KRAS-G12C, KRAS-G12D, and KRAS-G12V in a 384-well assay format using a TR-FRET probe displacement assay in buffer consisting of 50 mM Hepes (pH 7.4), 150 mM NaCl. 5 mM MgCl2 and 0.005% Tween-20. 0.03 nM KRAS was used in this assay with 0.02 nM Eu-streptavidin and 12 nM Cy-5 labelled probe. Compounds were serially diluted (1:3) in DMSO. The LabCyte ECHO Acoustic dispenser was used to pre-spot the assay plates (384-well Non-Binding Surface plates, Corning, Catalog #3824) with 50 nL of compound. 5 μL of 2× enzyme concentration was added to the pre-spotted plates and incubated for 30 minutes before adding 5 μL of 2× concentration of Eu-streptavidin and Cy-5 labelled probe (10 μL final reaction volume). The plates were incubated at room temperature for 2 hours before measuring TR-FRET ratio (665 nm/615 nm) on the Envision multimode plate reader. The ratios were normalized to a positive (saturating concentration of known inhibitor) and negative (DMSO) control and plotted against the log of compound concentration. […]

[3] = tested on: cellular pERK in Kuramochi (WT KRAS) cell-line; assay: Cell based pERK assay, Kuramochi; settings: 2 h, Kuramochi (WT KRAS) cells, 2 hours compound incubation, HTRF Phospho-ERK1/2
Method: as §1

[4] = target: GDP-loaded KRAS-G12C (Homo sapiens, UniProt P01116, G12C); assay: KRAS (GDP) biochemical TR-FRET probe displacement assay, G12C; format: binding; settings: 2 hours at room temperature
GDP-loaded KRAS-G12C, sequence (P01116 1-188 isoform P01116-2 G12C): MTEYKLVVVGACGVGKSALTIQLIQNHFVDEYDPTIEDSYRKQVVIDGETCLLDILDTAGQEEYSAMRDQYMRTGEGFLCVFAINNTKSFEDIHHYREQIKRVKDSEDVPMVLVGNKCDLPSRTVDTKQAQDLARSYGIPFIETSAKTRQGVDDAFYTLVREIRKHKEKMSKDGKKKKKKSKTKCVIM
Method: as §2

[5] = tested on: cellular pERK in NCI-H441 (KRAS-G12V) cell-line; assay: Cell based pERK assay, NCI-H441; settings: Homo sapiens; NCI-H441 (KRAS-G12V) cells, 2 hours compound incubation, HTRF Phospho-ERK1/2
Method: as §1

[6] = target: GDP-loaded KRAS-G12V (Homo sapiens, UniProt P01116, G12V); assay: KRAS (GDP) biochemical TR-FRET probe displacement assay, G12V; format: binding; settings: 2 hours at room temperature
GDP-loaded KRAS-G12V, sequence (P01116 1-188 isoform P01116-2 G12V): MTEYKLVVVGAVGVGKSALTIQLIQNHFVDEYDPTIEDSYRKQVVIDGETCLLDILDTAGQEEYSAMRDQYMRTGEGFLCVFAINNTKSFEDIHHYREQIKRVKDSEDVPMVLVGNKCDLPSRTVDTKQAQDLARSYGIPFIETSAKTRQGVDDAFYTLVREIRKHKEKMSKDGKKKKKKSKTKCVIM
Method: as §2

[7] = target: GDP-loaded wild-type KRAS (WT) (Homo sapiens, UniProt P01116); assay: KRAS (GDP) biochemical TR-FRET probe displacement assay, WT; format: binding; settings: 2 hours at room temperature
GDP-loaded wild-type KRAS (WT), sequence (P01116 1-188 isoform P01116-2): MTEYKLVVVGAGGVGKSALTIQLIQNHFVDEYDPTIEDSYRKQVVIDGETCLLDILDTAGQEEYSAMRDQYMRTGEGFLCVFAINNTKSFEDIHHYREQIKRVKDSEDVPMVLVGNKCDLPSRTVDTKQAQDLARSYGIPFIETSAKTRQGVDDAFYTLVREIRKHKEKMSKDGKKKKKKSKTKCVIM
Method: as §2

[8] = tested on: cellular pERK in ASPC-1 (KRAS G12D) cell-line; assay: Cell based pERK assay, ASPC-1; settings: Homo sapiens, ASPC1, 2 h, ASPC-1 (KRAS G12D) cells, 2 hours compound incubation, HTRF Phospho-ERK1/2
Method: as §1

In the case of C#Cc1c(F)ccc2cc(O)cc(-c3ncc4c(N5CC6(F)CCC(F)(C5)N6)nc(OC[C@@]56CCCN5[C@H](COc5cc(C(F)(F)F)cnn5)CC6)nc4c3F)c12 [Example 2-4], the EC50 [1] is reported as 0.29 nM, the IC50 [2] is reported as 0.36 nM and the EC50 [3] is reported as 5.56 nM. For the same compound, the IC50 [4] was 0.27 nM, the EC50 [5] was 9.86 nM and the IC50 [6] was 0.24 nM. It also gave an IC50 [7] of 0.21 nM and an EC50 [8] of 14.9 nM.
C#Cc1c(F)c(F)cc2cc(O)cc(-c3c(F)cc4c(N5CC6(F)CCC(F)(C5)N6)nc(OCC56CCCN5CCC6)nc4c3F)c12 [Example 2-5] was tested, and the EC50 [1] was 3.01 nM, the IC50 [2] was 0.61 nM and the EC50 [3] was 8.69 nM. For the same compound, the IC50 [4] was 0.15 nM, the EC50 [5] was 6.29 nM and the IC50 [6] was 0.2 nM. It also gave an IC50 [7] of 0.29 nM and an EC50 [8] of 61.7 nM.
Work on C#Cc1c(F)ccc2cc(O)cc(-c3c(Cl)cc4c(N5CC6(F)CCC(F)(C5)N6)nc(OC[C@@]56CCCN5C[C@H](F)C6)nc4c3F)c12 [Example 2-6] yielded an EC50 [1] of 1.75 nM, an IC50 [2] of 25.8 nM and an EC50 [3] of 5.13 nM. The IC50 [4] was 2.8 nM, the EC50 [5] was 6.11 nM and the IC50 [6] was 9.86 nM. For the same compound, the IC50 [7] was 5.93 nM and the EC50 [8] was 27.5 nM.
For Cc1cc(-c2c(F)cc3c(N4CC5(F)CCC(F)(C4)N5)nc(OC[C@@]45CCCN4C[C@H](F)C5)nc3c2F)c2cccnc2c1N [Example 2-7], the EC50 [1] was over 1000 nM, the IC50 [2] was over 100 nM and the EC50 [3] was over 1000 nM. For the same compound, the IC50 [4] was over 100 nM, the EC50 [5] was over 1000 nM and the IC50 [6] was over 100 nM. The IC50 [7] was over 100 nM and the EC50 [8] was over 1000 nM.
C#Cc1c(F)ccc2cccc(-c3ncc4c(N5C[C@]6(F)CC[C@](F)(C5)N6)nc(OCC56CCCN5CCC6)nc4c3F)c12 [Example 3-1, 4-((1R,5S)-1,5-difluoro-3,8-diazabicyclo[3.2.1]octan-3-yl)-7-(8-ethynyl-7-fluoronaphthalen-1-yl)-8-fluoro-2-((tetrahydro-1H-pyrrolizin-7a(5H)-yl)methoxy)pyrido[4,3-d]pyrimidine] showed an EC50 [1] of 38.4 nM, an EC50 [3] of 8.71 nM and an EC50 [5] of 117 nM. The EC50 [8] was 368 nM.
For CCc1c(F)ccc2cc(O)cc(-c3ncc4c(N5CC6(F)CCC(F)(C5)N6)nc(OC[C@@]56CCCN5C[C@H](F)C6)nc4c3F)c12 [Example 4-1, 4-(4-((1R,5S)-1,5-difluoro-3,8-diazabicyclo[3.2.1]octan-3-yl)-8-fluoro-2-(((2R,7aS)-2-fluorotetrahydro-1H-pyrrolizin-7a(5H)-yl)methoxy)pyridol[4,3-d]pyrimidin-7-yl)-5-ethyl-6-fluoronaphthalen-2-ol], the EC50 [1] was 2.22 nM, the EC50 [3] was 1.35 nM and the EC50 [5] was 4.7 nM. For the same compound, the EC50 [8] was 11.9 nM.
In the case of CCc1c(F)ccc2cccc(-c3ncc4c(N5CC6(F)CCC(F)(C5)N6)nc(OC[C@@]56CCCN5C[C@H](F)C6)nc4c3F)c12 [Example 4-2], the EC50 [1] is reported as 301 nM, the EC50 [3] is reported as 53.3 nM and the EC50 [5] is reported as 507 nM. The EC50 [8] was 1030 nM.
With Fc1ccc2nc(C(F)(F)F)c(-c3c(F)cc4c(N5CC6(F)CCC(F)(C5)N6)nc(OC[C@@]56CCCN5C[C@H](F)C6)nc4c3F)n2c1 [Example 6-3] the IC50 [2] was over 100 nM, the IC50 [4] was over 100 nM and the IC50 [6] was over 100 nM. The IC50 [7] was over 100 nM.
Work on Cc1c(F)c(N)cc(-c2ncc3c(N4CC5(F)CCC(F)(C4)N5)nc(OC[C@@]45CCCN4C[C@H](F)C5)nc3c2F)c1C(F)(F)F [Example 6-4] yielded an IC50 [2] of over 100 nM, an EC50 [3] of 11.3 nM and an IC50 [4] of 20.1 nM. For the same compound, the IC50 [6] was 21.6 nM, the IC50 [7] was 17.3 nM and the EC50 [8] was 449 nM.
